Patent US7868024B2, “Derivatives of N-(heteroaryl)-1-heteroaryl-1H-indole-2-carboxamides, preparation thereof and therapeutic use thereof” (Sanofi-Aventis, priority 2007, dated 2011)

Assays:
TRPV1 receptor = target: T1, TRPV1 receptor (Rattus norvegicus, UniProt O35433); assay: Inhibition of the current induced by capsaicin in rat DRG cells (whole-cell patch clamp); format: cell-based; settings: DRG neuron; compound at 10 nM; capsaicin (1 μM) response; primary culture of newborn rat DRG neurons; read-out: % Inhibition by the DRG patch technique
T1 construct: The neurons of the DRG naturally express the TRPV1 receptor; endogenous in cells; host or cells: primary culture of newborn rat dorsal root ganglion (DRG) neurons
T1 sequence (O35433 whole entry): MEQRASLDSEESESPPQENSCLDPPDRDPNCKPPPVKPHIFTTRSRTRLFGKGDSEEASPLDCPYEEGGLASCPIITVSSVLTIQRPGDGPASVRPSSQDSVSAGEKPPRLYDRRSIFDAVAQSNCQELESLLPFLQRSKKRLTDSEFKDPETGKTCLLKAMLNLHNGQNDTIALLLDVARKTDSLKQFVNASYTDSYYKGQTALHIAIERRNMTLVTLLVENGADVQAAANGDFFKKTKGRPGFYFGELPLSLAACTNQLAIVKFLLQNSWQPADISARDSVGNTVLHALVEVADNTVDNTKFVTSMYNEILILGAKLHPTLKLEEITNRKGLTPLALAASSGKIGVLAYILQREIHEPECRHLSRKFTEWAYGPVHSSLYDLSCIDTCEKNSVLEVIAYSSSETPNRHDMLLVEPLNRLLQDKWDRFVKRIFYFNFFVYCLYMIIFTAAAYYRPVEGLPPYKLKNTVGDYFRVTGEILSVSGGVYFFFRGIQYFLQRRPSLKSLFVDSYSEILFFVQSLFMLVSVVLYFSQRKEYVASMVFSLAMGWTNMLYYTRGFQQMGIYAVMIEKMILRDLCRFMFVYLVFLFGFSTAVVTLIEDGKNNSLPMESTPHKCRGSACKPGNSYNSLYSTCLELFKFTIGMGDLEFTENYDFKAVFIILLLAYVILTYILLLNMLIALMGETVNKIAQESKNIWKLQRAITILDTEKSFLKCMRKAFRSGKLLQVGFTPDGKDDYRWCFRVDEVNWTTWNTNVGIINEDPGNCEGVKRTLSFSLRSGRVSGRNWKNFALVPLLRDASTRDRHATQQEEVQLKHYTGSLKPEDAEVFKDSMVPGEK
Experimental: Test of the Inhibition of the Current Induced by Capsaicin with Regard to Rat DRGs
Primary Culture of Rat Dorsal Root Ganglion (DRG) Cells:
The neurons of the DRG naturally express the TRPV1 receptor.
Primary cultures of DRGs of newborn rats are prepared from 1-day-old rats. Briefly, after dissection, the ganglions are trypsinized and their cells dissociated mechanically by gentle trituration. […]
The measurement chambers (volume 800 μl) comprising the cell preparation are placed on the stage of an inverted microscope (Olympus IMT2) equipped with Hoffman optics (Modulation Contrast, New York) and are observed at a magnification of 400×. […] The overall currents (membrane potential set at −60 mV) are recorded with an Axopatch 1D amplifier (Axon Instruments, Foster City, Calif.) connected to a PC controlled by Pclamp8 software (Axon Instruments). The current plots are recorded on paper and simultaneously recorded digitally (sampling frequency 15 to 25 Hz) and acquired on the hard disk of the PC.
The application of a micromolar capsaicin solution produces an incoming cationic current with regard to the DRG cells (voltage set at −70 mV). […] The results are expressed as % of inhibition of the control capsaicin response.

With Cn1ccc2cc(NC(=O)c3cc4cc(F)ccc4n3-c3ccccn3)ccc21 [Compound No. 3, N-(1-Methyl-1H-indol-5-yl)-5-fluoro-1-(pyridin-2-yl)-1H-indole-2-carboxamide] the melting point was 210 to 211 °C.

Cc1nc2cc(NC(=O)c3cc4cc(F)ccc4n3-c3cccnc3)ccc2n1C [Compound No. 6, N-(1,2-Dimethyl-1H-benzimidazol-5-yl)-5-fluoro-1-(pyridin-3-yl)-1H-indole-2-carboxamide] gave a melting point of 139 to 141 °C.

Cc1cc(C)nc(-n2c(C(=O)Nc3ccc4c(c3)nc(C)n4C)cc3cc(F)ccc32)c1 [Compound No. 10, N-(1,2-Dimethyl-1H-benzimidazol-5-yl)-5-fluoro-1-(4,6-dimethylpyridin-2-yl)-1H-indole-2-carboxamide] gave an inhibition at 0.01 µM (TRPV1 receptor) of 70%.

With Cc1ccnc(-n2c(C(=O)Nc3ccc4c(ccn4C)c3)cc3cc(F)ccc32)c1 [Compound No. 7, N-(1-methyl-1H-indol-5-yl)-5-fluoro-1-(4-methylpyridin-2-yl)-1H-indole-2-carboxamide] the melting point was 276 to 279 °C.

With Cc1cc(-n2c(C(=O)Nc3ccc4c(ccn4C)c3)cc3cc(F)ccc32)ccn1 [Compound No. 9, N-(1-Methyl-1H-indol-5-yl)-5-fluoro-1-(2-methylpyridin-4-yl)-1H-indole-2-carboxamide] the melting point was 213 to 216 °C.

With Cc1nc2cc(NC(=O)c3cc4cc(F)ccc4n3-c3ccccn3)ccc2n1C [Compound No. 5, N-(1,2-Dimethyl-1H-benzimidazol-5-yl)-5-fluoro-1-(pyridin-2-yl)-1H-indole-2-carboxamide] the melting point was 260 to 261 °C.

With Cc1ccnc(-n2c(C(=O)Nc3ccc4c(c3)nc(C)n4C)cc3cc(F)ccc32)c1 [Compound No. 8, N-(1,2-Dimethyl-1H-benzimidazol-5-yl)-5-fluoro-1-(4-methylpyridin-2-yl)-1H-indole-2-carboxamide] the melting point was 270 to 278 °C.

With Cc1nc2cc(NC(=O)c3cc4cc(F)ccc4n3-c3ccncc3)ccc2n1C [Compound No. 4, N-(1,2-Dimethyl-1H-benzimidazol-5-yl)-5-fluoro-1-(pyridin-4-yl)-1H-indole-2-carboxamide] the melting point was 226 to 229 °C.

Work on Cn1ccc2cc(NC(=O)c3cc4cc(F)ccc4n3-c3cccnc3)ccc21 [Compound No. 2, N-(1-methyl-1H-indol-5-yl)-5-fluoro-1-(pyridin-3-yl)-1H-indole-2-carboxamide] yielded a melting point of 203 to 205 °C.

With Cc1cc(C)nc(-n2c(C(=O)Nc3ccc4c(ccn4C)c3)cc3cc(F)ccc32)c1 [Compound No. 11, N-(1-Methyl-1H-indol-5-yl)-5-fluoro-1-(4,6-dimethylpyridin-2-yl)-1H-indole-2-carboxamide] the melting point was 198 to 199 °C.
